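The compound was tested at five concentrations on cells cultured in 96-well plates, with a 48-hour exposure period. GI50 = concentration required for 50% inhibition of growth. TGI denotes the concentration required for complete inhibition of growth.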
Tests used:
Assay in all cases: growth of human tumour cells (NCI), 48 h
SF-539 CNS = tested on: SF-539 CNS
UO-31 renal = tested on: UO-31 renal
MDA-MB-231 breast = tested on: MDA-MB-231 breast
CCRF-CEM leukemia = tested on: CCRF-CEM leukemia
HT29 colon = tested on: HT29 colon
786-0 renal = tested on: 786-0 renal
SK-MEL-5 melanoma = tested on: SK-MEL-5 melanoma
K-562 leukemia = tested on: K-562 leukemia
MOLT-4 leukemia = tested on: MOLT-4 leukemia
T-47D breast = tested on: T-47D breast
UACC-257 melanoma = tested on: UACC-257 melanoma
RXF 393 renal = tested on: RXF 393 renal
BT-549 breast = tested on: BT-549 breast
NCI-H460 lung = tested on: NCI-H460 lung
IGROV1 ovarian = tested on: IGROV1 ovarian
NCI-H522 lung = tested on: NCI-H522 lung
HS 578T breast = tested on: HS 578T breast
HOP-62 NSCLC = tested on: HOP-62 NSCLC
RPMI-8226 leukemia = tested on: RPMI-8226 leukemia
EKVX NSCLC = tested on: EKVX NSCLC
M14 melanoma = tested on: M14 melanoma
NCI-H226 lung = tested on: NCI-H226 lung
HL-60(TB) leukemia = tested on: HL-60(TB) leukemia
SR leukemia = tested on: SR leukemia
NCI-H23 lung = tested on: NCI-H23 lung
A549 NSCLC = tested on: A549 NSCLC
SK-MEL-28 melanoma = tested on: SK-MEL-28 melanoma
ACHN renal = tested on: ACHN renal
U251 CNS = tested on: U251 CNS
DU-145 prostate = tested on: DU-145 prostate
PC-3 prostate = tested on: PC-3 prostate
OVCAR-4 ovarian = tested on: OVCAR-4 ovarian
SK-OV-3 ovarian = tested on: SK-OV-3 ovarian
HCC-2998 colon = tested on: HCC-2998 colon
MDA-MB-468 breast = tested on: MDA-MB-468 breast
HCT-15 colon = tested on: HCT-15 colon
NCI/ADR-RES ovarian = tested on: NCI/ADR-RES ovarian
SF-295 CNS = tested on: SF-295 CNS
LOX IMVI melanoma = tested on: LOX IMVI melanoma
OVCAR-3 ovarian = tested on: OVCAR-3 ovarian
SF-268 CNS = tested on: SF-268 CNS
SK-MEL-2 melanoma = tested on: SK-MEL-2 melanoma
OVCAR-5 ovarian = tested on: OVCAR-5 ovarian
A498 renal = tested on: A498 renal
TK-10 renal = tested on: TK-10 renal
MALME-3M melanoma = tested on: MALME-3M melanoma
SN12C renal = tested on: SN12C renal
KM12 colon = tested on: KM12 colon
MDA-MB-435 = tested on: MDA-MB-435
OVCAR-8 ovarian = tested on: OVCAR-8 ovarian
MCF7 breast = tested on: MCF7 breast
CAKI-1 renal = tested on: CAKI-1 renal
SNB-75 CNS = tested on: SNB-75 CNS
UACC-62 melanoma = tested on: UACC-62 melanoma
SNB-19 CNS = tested on: SNB-19 CNS
COLO 205 colon = tested on: COLO 205 colon
SW-620 colon = tested on: SW-620 colon
HOP-92 NSCLC = tested on: HOP-92 NSCLC
HCT-116 colon = tested on: HCT-116 colon

For `CC(=C(c1ccc(OCCN2CCCCC2)cc1)c1ccc(OCCN2CCCCC2)cc1)c1ccccc1`, the GI50 (SF-539 CNS) was 3.39 µM, the TGI (SF-539 CNS) was 6.39 µM and the GI50 (UO-31 renal) was 3.82 µM. For the same compound, the TGI (UO-31 renal) was 10.4 µM, the GI50 (MDA-MB-231 breast) was 4 µM and the TGI (MDA-MB-231 breast) was 9.17 µM. It also gave a GI50 (CCRF-CEM leukemia) of 5.2 µM, a TGI (CCRF-CEM leukemia) of 21.7 µM and a GI50 (HT29 colon) of 3.77 µM. For the same compound, the TGI (HT29 colon) was 11.7 µM, the GI50 (786-0 renal) was 3.39 µM and the TGI (786-0 renal) was 6.91 µM. It also gave a GI50 (SK-MEL-5 melanoma) of 3.64 µM, a TGI (SK-MEL-5 melanoma) of 6.87 µM and a GI50 (K-562 leukemia) of 3.26 µM. It also gave a TGI (K-562 leukemia) of over 21.8 µM, a GI50 (MOLT-4 leukemia) of 4.15 µM and a TGI (MOLT-4 leukemia) of 12.9 µM. It also gave a GI50 (T-47D breast) of 2.55 µM, a TGI (T-47D breast) of 6.6 µM and a GI50 (UACC-257 melanoma) of 3.18 µM. For the same compound, the TGI (UACC-257 melanoma) was 6.3 µM, the GI50 (RXF 393 renal) was 3.21 µM and the TGI (RXF 393 renal) was 10.4 µM. For the same compound, the GI50 (BT-549 breast) was over 21.8 µM, the TGI (BT-549 breast) was over 21.8 µM and the GI50 (NCI-H460 lung) was 4.1 µM. For the same compound, the TGI (NCI-H460 lung) was 9.98 µM, the GI50 (IGROV1 ovarian) was 9.78 µM and the TGI (IGROV1 ovarian) was over 21.8 µM. The GI50 (NCI-H522 lung) was 3.26 µM, the TGI (NCI-H522 lung) was 7.85 µM and the GI50 (HS 578T breast) was 3.33 µM. The TGI (HS 578T breast) was 10.9 µM, the GI50 (HOP-62 NSCLC) was 6.45 µM and the TGI (HOP-62 NSCLC) was over 21.8 µM. It also gave a GI50 (RPMI-8226 leukemia) of 6.54 µM, a TGI (RPMI-8226 leukemia) of over 21.8 µM and a GI50 (EKVX NSCLC) of over 21.8 µM. For the same compound, the TGI (EKVX NSCLC) was over 21.8 µM, the GI50 (M14 melanoma) was 3.95 µM and the TGI (M14 melanoma) was 8.32 µM. The GI50 (NCI-H226 lung) was over 21.8 µM, the TGI (NCI-H226 lung) was over 21.8 µM and the GI50 (HL-60(TB) leukemia) was 2.67 µM. It also gave a TGI (HL-60(TB) leukemia) of 7.09 µM, a GI50 (SR leukemia) of 3.68 µM and a TGI (SR leukemia) of 11.5 µM. For the same compound, the GI50 (NCI-H23 lung) was 12.5 µM, the TGI (NCI-H23 lung) was over 21.8 µM and the GI50 (A549 NSCLC) was 5.91 µM. It also gave a TGI (A549 NSCLC) of over 21.8 µM, a GI50 (SK-MEL-28 melanoma) of 3.62 µM and a TGI (SK-MEL-28 melanoma) of 6.68 µM. It also gave a GI50 (ACHN renal) of 5.2 µM, a TGI (ACHN renal) of 17.2 µM and a GI50 (U251 CNS) of 3.76 µM. It also gave a TGI (U251 CNS) of 8.51 µM, a GI50 (DU-145 prostate) of 12.4 µM and a TGI (DU-145 prostate) of over 21.8 µM. It also gave a GI50 (PC-3 prostate) of 8.19 µM, a TGI (PC-3 prostate) of over 21.8 µM and a GI50 (OVCAR-4 ovarian) of 7.66 µM. For the same compound, the TGI (OVCAR-4 ovarian) was over 21.8 µM, the GI50 (SK-OV-3 ovarian) was over 21.8 µM and the TGI (SK-OV-3 ovarian) was over 21.8 µM. It also gave a GI50 (HCC-2998 colon) of 4.7 µM, a TGI (HCC-2998 colon) of 21 µM and a GI50 (MDA-MB-468 breast) of 3.79 µM. The TGI (MDA-MB-468 breast) was 9.45 µM, the GI50 (HCT-15 colon) was 4.98 µM and the TGI (HCT-15 colon) was over 21.8 µM. The GI50 (NCI/ADR-RES ovarian) was 12.1 µM, the TGI (NCI/ADR-RES ovarian) was over 21.8 µM and the GI50 (SF-295 CNS) was 3.52 µM. For the same compound, the TGI (SF-295 CNS) was 7.17 µM, the GI50 (LOX IMVI melanoma) was 3.48 µM and the TGI (LOX IMVI melanoma) was 6.59 µM. For the same compound, the GI50 (OVCAR-3 ovarian) was 3.84 µM, the TGI (OVCAR-3 ovarian) was 17.2 µM and the GI50 (SF-268 CNS) was 5.56 µM. For the same compound, the TGI (SF-268 CNS) was over 21.8 µM, the GI50 (SK-MEL-2 melanoma) was 3.85 µM and the TGI (SK-MEL-2 melanoma) was 7.72 µM. The GI50 (OVCAR-5 ovarian) was 11.7 µM, the TGI (OVCAR-5 ovarian) was over 21.8 µM and the GI50 (A498 renal) was over 21.8 µM. For the same compound, the TGI (A498 renal) was over 21.8 µM, the GI50 (TK-10 renal) was 16.7 µM and the TGI (TK-10 renal) was over 21.8 µM. For the same compound, the GI50 (MALME-3M melanoma) was 3.38 µM, the TGI (MALME-3M melanoma) was 6.31 µM and the GI50 (SN12C renal) was over 21.8 µM. For the same compound, the TGI (SN12C renal) was over 21.8 µM, the GI50 (KM12 colon) was 8.17 µM and the TGI (KM12 colon) was over 21.8 µM. For the same compound, the GI50 (MDA-MB-435) was 3.25 µM, the TGI (MDA-MB-435) was 6.88 µM and the GI50 (OVCAR-8 ovarian) was over 21.8 µM. It also gave a TGI (OVCAR-8 ovarian) of over 21.8 µM, a GI50 (MCF7 breast) of 0.625 µM and a TGI (MCF7 breast) of 4.98 µM. For the same compound, the GI50 (CAKI-1 renal) was 5.01 µM, the TGI (CAKI-1 renal) was over 21.8 µM and the GI50 (SNB-75 CNS) was 3.79 µM. It also gave a TGI (SNB-75 CNS) of over 21.8 µM, a GI50 (UACC-62 melanoma) of 3.64 µM and a TGI (UACC-62 melanoma) of 6.83 µM. It also gave a GI50 (SNB-19 CNS) of 6.88 µM, a TGI (SNB-19 CNS) of over 21.8 µM and a GI50 (COLO 205 colon) of 3.53 µM. The TGI (COLO 205 colon) was 7.61 µM, the GI50 (SW-620 colon) was 2.95 µM and the TGI (SW-620 colon) was 6.86 µM. The GI50 (HOP-92 NSCLC) was 5.01 µM, the TGI (HOP-92 NSCLC) was over 21.8 µM and the GI50 (HCT-116 colon) was 3.43 µM. For the same compound, the TGI (HCT-116 colon) was 10.1 µM.

— PubChem BioAssay (NCI)
